Tests used:
[1] = tested on: A431 human epidermoid cells (xenograft in nude mice); test: Effect of topical drug on killing of tumor xenograft by external beam γ irradiation; type: in vivo, mouse; settings: topical dose 5-times higher than standard regimen, adjacent to xenograft; 6.2 Gy
Description: Briefly, athymic nude mice (nu/nu, 6-7 weeks, Harlan Labs) were housed in cages containing autoclaved bedding and received autoclaved food and water. Cages were maintained in a sterile laminar flow hood. Mice received a single, sc injection of tumor cells (6.5×10^6, A431; 2.5×10^6, L1210) suspended in 200 ul of serum-free DMEM.
After three days, mice were treated with topical drug in vehicle or vehicle alone. PrC-210 was formulated in a 50:30:20 vehicle (ethanol:PG (propylene glycol):water, adjusted to pH 6.5 with NaOH), and mice received four topical applications over two hours (at −2 hr, −1 hr, −30 min and −10 min, irradiation was at 0 min). 18-20 gm nude mice received topical treatments of 13 ul, 11 ul, 11 ul and 11 ul (total=46 ul) applied to a roughly 1 cm×1.5 cm area on the right flank, which was adjacent to the tumor xenograft. For these tumor xenograft experiments, a 5-fold increase in drug concentration over the minimum effective concentration previously shown to prevent radiodermatitis was tested.
With the last topical drug application, at −10 min, the mice also received an ip injection of Nembutal (65 ug/gm b.w.). […]
Growth of the xenograft tumors was monitored by vernier caliper measurements every 1-2 days for the 18-21 days following irradiation. […]

[2] = tested on: Cytoxan-induced alopecia in rat pups; test: Cytoxan-induced alopecia in rat pups; type: in vivo
Description: Induction of alopecia by cytoxan (CTX). Lactating Sprague Dawley mother rats with rat pups were purchased from Harlan Sprague Dawley (Indianapolis, Ind.). The mother rats were given food and water ad libitum. The rats pups were tested in the model of chemotherapy-induced alopecia described by Hussein A. M. et al., Science: 249, 1564 (1990). Cytoxan (CTX), a chemotherapeutic widely used in the treatment of cancer, was used to induce alopecia in the rats. A common side effect of cytoxan treatment in patients is alopecia. Lyophilized vials of Cytoxan were obtained from Mead-Johnson. To produce CTX-induced alopecia, 11 day old rat pups, which are at the peak of coat growth, were injected i.p. with 30-35 μg of CTX/gm body weight. CTX was dissolved in water. By day 18 of life, the animals have shed virtually 100% of their coat leaving bare skin on their backs. Thus, topical application of protective drugs to the animal's back prior to the CTX insult provides a suitable test for prevention of chemotherapy-induced alopecia. A separate alopecia assay was also developed in which whole-body irradiation on day 11 of life was used as the insult. This assay is described in further detail in Example 12 which follows.
In the earliest studies with chemoprotective polyamines, the molecules were prepared in a topical delivery vehicle consisting of from 50-70% ethanol in water, depending on the solubility of the compound. The compounds in ethanol/water solution from 50-150 µl in volume were topically administered to the backs of the pups once per day before and after CTX challenge. Using a micropipette, the formulation was applied to an approximately 2 cm2 section of skin on the backs of the rat pups. Specifically, the pups were treated once daily for the 4-5 days before CTX challenge, once on the day of CTX challenge and once daily for 5 days afterwards. Control groups consisted of pups receiving only delivery vehicle. […]
In the earliest studies with chemoprotective polyamines, hair loss was evaluated using a modified alopecia-scoring index described by Chen G. et al., Int. […] In the later studies with aminothiols a simpler scoring scale was adopted in which coat density was scored on a 0-100 scale as “% of normal coat density.”
Method: To assess the ability of topical treatments to prevent Cytoxan-induced alopecia we used a published protocol (Hussein et al., Science. 249(4976):1564-6, 1990) in which 11 day old neonate rat pups (Sprague-Dawley) receive a total of 6 topical skin treatments of active agent(s) during the 5 hr before and 2 hr after a single ip dose of Cytoxan (32 ug/gm b.w.). […] The density of the rat coats in the topical treatment area was scored on day 18 of life for animals injected with Cytoxan.

[3] = tested on: supercoiled pUC19 plasmid; test: Hydroxyl radical scavenging, plasmid DNA protection; type: biochemical; settings: 0-70 mM, pH 6.5; even the lowest concentration tested; UV 2.5 min
Description: Method: 0.3 μg pUC19 plasmid was added to a 16 μl incubation containing Tris-EDTA buffer, then either PrC-210 (0-70 mM, pH 6.5) or buffer were added to the incubation. The polypropylene microtubes were then sealed and irradiated for 2.5 min at a distance of 80 cm from a UV lamp. Samples were then applied to 1% agarose gels and electrophoresed using methods known in the art.

SMILES: CNCC(CS)CNC [PrC-210, 3-methylamino-2-methylaminomethyl-propane-1-thiol]
- effect upon killing of tumor cells by external beam γ irradiation [1]: no discernible effect
- Alopecia Score (% Normal Coat Density in Topical Treatment Area) ([2]; 2000 mM PrC-210 alone, ip Cytoxan 32 ug/gm b.w., Experiment 552-555): 9%
- effect in preventing Cytoxan-induced alopecia ([2]; neonate rats, three days topical resveratrol and/or topical PrC-210): weak effect
- protection of supercoiled DNA from OH radical damage [3]: completely prevented damage to supercoiled DNA

Source: US7314959B2, “Amino thiol compounds and compositions for use in conjunction with cancer therapy” (Wisconsin Alumni Research Foundation, priority 2003, dated 2008)
